# Test results reported in paper PMC7502707, “Characterization and validation of a preventative therapy for hypertrophic cardiomyopathy in a murine model of the disease” (Proceedings of the National Academy of Sciences of the …, 2020).
# Key:
# [1] = target: T1, cardiac L-type calcium channel (ICa-L) (Mus musculus, UniProt Q01815); experiment: Whole-cell patch-clamp of ICa-L currents in ventricular myocytes; type: cell-based; details: cTnI-G203S myocytes, in vitro 1 μM peptide
# T1 construct: measure changes in ICa-L currents ([13]), and stimulate calcium transients in intact ventricular myocytes; endogenous in cells; host or cells: ventricular myocytes isolated from wt (human cTnI transgene) and cTnI-G203S mice
# Protocol: (§1) The whole-cell configuration of the patch-clamp technique was used to measure changes in ICa-L currents ([13]), and stimulate calcium transients in intact ventricular myocytes. Detailed methods are provided in SI Appendix.
# (§2) Supporting Materials and Methods
# (§3) Isolation of ventricular myocytes
# (§4) Myocytes were isolated from wt and cTnI-G203S mice. Animals were anesthetized with pentobarbitone sodium (240 mg/kg) via intraperitoneal injection prior to excision of the heart. Cells were isolated as previously described (1-3). Mouse hearts were excised, cannulated onto a Langendorff apparatus via the aorta, and perfused with Krebs-Henseleit Buffer (KHB) containing […]
# (§5) O2/CO2 at 37°C) for 4 min at 37°C. […]
# (§6) The whole-cell configuration of the patch-clamp technique was used to measure changes in ICa-L currents (4), and stimulate calcium transients in intact ventricular myocytes. […] Currents were measured in extracellular modified Tyrode’s solution containing (in mM): NaCl 140, CsCl 5.4, CaCl2 2.5, MgCl2 0.5, HEPES 5.5 and glucose 11 (pH adjusted to 7.6 with NaOH). Macroscopic currents were recorded using an Axopatch 200B voltage-clamp amplifier (Molecular Devices) with a Digidata 1440A interface and pClamp10.5 software (Molecular Devices). […] The time course of changes in Ca2+ conductance were monitored by applying a 100 ms test pulse to 10 mV once every 10 seconds. […]
# [2] = system: cTnI-G203S cardiac myocytes; experiment: Calcium transients in Fura-2 loaded myocytes; type: cell-based, mouse; details: in vitro 1 μM peptide
# Protocol: as §1, §2, §3, §4, §5, §6
# [3] = system: cardiac L-type calcium channel (ICa-L); parameters: method as in PMID 19166857, PMID 24969422, PMID 24958783; details: wt myocytes; cited from earlier work
sequence,measurement,setting,value
QQLEEDLKGYLDWITQAE [AID-TAT],ICa-L current density,[1],no significant alteration
same,ICa-L inactivation rate (tau),[1]; 37 °C,restored ICa-L inactivation rate to wt levels
same,"cellular calcium handling (calcium transients, Fura-2)",[2],no significant alteration
same,inactivation rate of the cardiac ICa-L,[3],slows the inactivation rate
